Source: patent US11970473B2, “Nootkatone derivatives and methods of using the same” (Arkansas State University—Jonesboro, priority 2021, dated 2024)
Values after ≈ are worked out from the molar mass of the structure shown. Where two headings read alike, the source gives them in different places.

Assays:
MRSA persisters = experiment: Persister Cell Killing Assay; conditions: after 4 hrs exposure; 128×MIC
Description: A persister cell killing assay was performed following the methodology described by Kim et. al. with some modifications.^28 S. aureus strain was grown to stationary phase in CAMHB medium by shaking at 200 rpm overnight at 35° C. An aliquot of stationary phase culture (1 ml) was washed thrice with 1×PBS by centrifugation. After washing, the cells were diluted to ˜5×10^8 CFU/ml (confirmed by plate count). Diluted persister cells (2 ml) plus antibiotics at the desired concentration were incubated in sterile 10×75 mm plastic culture tubes at 35° C. with shaking at 200 rpm. At specific times, 400 μl aliquots were placed into microcentrifuge tubes and the cells washed and serially diluted in PBS. The diluted sample was plated on TSA agar plate with 5% sheep blood by the 6×6 drop plate method. Plates were incubated for 18-20 hours at 35° C., and then colonies were counted to calculate concentrations in CFU/ml. The experiment was performed in triplicates.

[1] = system: Enterococcus faecium ATCC 700221 (Em21); experiment: Minimal inhibitory concentration (MIC) assay; format: cell-based; conditions: Enterococcus faecium
Description: (§1) Minimal inhibitory concentration (MIC) assay The standard microdilution method recommended by the Clinical and Laboratory Standards Institute (CLSI) was used to determine the MIC of the antibiotics. The starting concentration of compounds was 50 μg/ml and 2-fold dilution was done down the 96 honeycomb well plate column. The MIC assay was conducted in triplicates.

[2] = system: S. epidermidis 700296 (Se); experiment: Minimal inhibitory concentration (MIC) assay; format: cell-based; conditions: Staphylococcus epidermidis, read-out: Antimicrobial activity (MIC) Se
Description: as §1

[3] = system: Enterococcus faecalis ATCC 29212 (Es12); experiment: Minimal inhibitory concentration (MIC) assay; format: cell-based
Description: as §1

[4] = system: S. aureus ATCC 33591 (Sa91); experiment: Minimal inhibitory concentration (MIC) assay; format: cell-based; conditions: Staphylococcus aureus
Description: as §1

[5] = system: S. aureus ATCC 700699 (Sa99); experiment: Minimal inhibitory concentration (MIC) assay; format: cell-based; conditions: Staphylococcus aureus
Description: as §1

[6] = system: S. aureus ATCC 33592 (Sa92); experiment: Minimal inhibitory concentration (MIC) assay; format: cell-based; conditions: Staphylococcus aureus
Description: as §1

[7] = system: B. subtilis ATCC 6623 (Bs); experiment: Minimal inhibitory concentration (MIC) assay; format: cell-based; conditions: Bacillus subtilis
Description: as §1

[8] = system: S. aureus BAA-2312 (Sa12); experiment: Minimal inhibitory concentration (MIC) assay; format: cell-based; conditions: Staphylococcus aureus
Description: as §1

[9] = system: S. aureus ATCC 25923 (Sa23); experiment: Minimal inhibitory concentration (MIC) assay; format: cell-based; conditions: Staphylococcus aureus
Description: as §1

S. aureus strains = experiment: MIC, summary over S. aureus strains; format: cell-based; conditions: two MRSA strains
Description: as §1

[10] = ATCC700221, Enterococcus faecium ATCC 700221, read-out: Antimicrobial activity (MIC) Em21
[11] = ATCC29212, Enterococcus faecalis ATCC 29212, read-out: Antimicrobial activity (MIC) Es12
[12] = ATCC33591, S. aureus ATCC 33591, antibiotic-resistant strain, read-out: Antimicrobial activity (MIC) Sa91
[13] = ATCC700699, S. aureus ATCC 700699, antibiotic-resistant strain, read-out: Antimicrobial activity (MIC) Sa99
[14] = ATCC33592, S. aureus ATCC 33592, antibiotic-resistant strain, read-out: Antimicrobial activity (MIC) Sa92
[15] = ATCC6623, B. subtilis ATCC 6623, read-out: Antimicrobial activity (MIC) Bs
[16] = BAA2312, S. aureus BAA-2312, antibiotic-resistant strain, read-out: Antimicrobial activity (MIC) Sa12
[17] = ATCC25923, S. aureus ATCC 25923, antibiotic susceptible strain, read-out: Antimicrobial activity (MIC) Sa23

Compound	CFU count (MRSA persisters)	MIC [1, 10]	MIC ([2]; S. epidermidis 700296)	MIC [3, 11]	MIC [4, 12]	MIC [5, 13]	MIC [6, 14]	MIC [7, 15]	MIC [8, 16]	MIC [9, 17]	MIC ([1]; ATCC700221, read-out: Antimicrobial activity (MIC) Em21)	MIC [2]	MIC ([3]; Enterococcus faecalis, ATCC29212, read-out: Antimicrobial activity (MIC) Es12)	MIC ([4]; ATCC33591, read-out: Antimicrobial activity (MIC) Sa91)	MIC ([5]; ATCC700699, read-out: Antimicrobial activity (MIC) Sa99)	MIC ([6]; ATCC33592, read-out: Antimicrobial activity (MIC) Sa92)	MIC ([7]; ATCC6623, read-out: Antimicrobial activity (MIC) Bs)	MIC ([8]; BAA2312, read-out: Antimicrobial activity (MIC) Sa12)	MIC ([9]; ATCC25923, read-out: Antimicrobial activity (MIC) Sa23)	activity against MRSA strains (S. aureus strains)
gentamycin [reference compound]	2.2×10^8 CFU																			
C=C(C)[C@@H]1CC=C2c3sc(Nc4ccc(OC(F)(F)F)cc4)nc3C[C@@H](C)[C@]2(C)C1 [Compound 26, (5R,5aS,7R)-7-isopropenyl-5,5a-dimethyl-N-[4-(trifluoromethoxy)phenyl]-5,6,7,8-tetrahydro-4H-benzo[g][1,3]benzothiazol-2-amine]		> 100 µg/mL	> 100 µg/mL	> 100 µg/mL	> 100 µg/mL	> 100 µg/mL	> 100 µg/mL	100 µg/mL (≈ 230 µM)	> 100 µg/mL	50 µg/mL (≈ 115 µM)										
C=C(C)[C@@H]1CC=C2c3sc(Cc4ccccc4C)nc3C[C@@H](C)[C@]2(C)C1 [Compound 4, (5R,5aS,7R)-7-isopropenyl-5,5a-dimethyl-2-(o-tolylmethyl)-5,6,7,8-tetrahydro-4H-benzo[g][1,3]benzothiazole]											> 100 µg/mL	> 100 µg/mL	> 100 µg/mL	> 100 µg/mL	> 100 µg/mL	> 100 µg/mL	> 100 µg/mL	> 100 µg/mL	> 100 µg/mL	
C=C(C)[C@@H]1CC=C2c3sc(-c4ccc5c(c4)OCO5)nc3C[C@@H](C)[C@]2(C)C1 [Compound 17, (5R,5aS,7R)-2-(1,3-benzodioxol-5-yl)-7-isopropenyl-5,5a-dimethyl-5,6,7,8-tetrahydro-4H-benzo[g][1,3]benzothiazole]		> 100 µg/mL	25 µg/mL (≈ 65.9 µM)	> 100 µg/mL	25 µg/mL (≈ 65.9 µM)	> 100 µg/mL	> 100 µg/mL	12.5 µg/mL (≈ 32.9 µM)	> 100 µg/mL	> 100 µg/mL										moderate activity
C=C(C)[C@@H]1CC=C2c3sc(Cc4ccccc4)nc3C[C@@H](C)[C@]2(C)C1 [Compound 3, (5R,5aS,7R)-2-benzyl-7-isopropenyl-5,5a-dimethyl-5,6,7,8-tetrahydro-4H-benzo[g][1,3]benzothiazole]		> 100 µg/mL	> 100 µg/mL	> 100 µg/mL	> 100 µg/mL	> 100 µg/mL	> 100 µg/mL	> 100 µg/mL	> 100 µg/mL	> 100 µg/mL										
C=C(C)[C@@H]1CC=C2c3sc(-c4ccc(OC)cc4)nc3C[C@@H](C)[C@]2(C)C1 [Compound 10, (5R,5aS,7R)-7-isopropenyl-2-(4-methoxyphenyl)-5,5a-dimethyl-5,6,7,8-tetrahydro-4H-benzo[g][1,3]benzothiazole]		> 100 µg/mL	> 100 µg/mL	> 100 µg/mL	100 µg/mL (≈ 274 µM)	> 100 µg/mL	> 100 µg/mL	50 µg/mL (≈ 137 µM)	100 µg/mL (≈ 274 µM)	50 µg/mL (≈ 137 µM)										
C=C(C)[C@@H]1CC=C2c3sc(-c4cccc(OCC)c4)nc3C[C@@H](C)[C@]2(C)C1 [Compound 11, (5R,5aS,7R)-2-(3-ethoxyphenyl)-7-isopropenyl-5,5a-dimethyl-5,6,7,8-tetrahydro-4H-benzo[g][1,3]benzothiazole]		> 100 µg/mL	> 100 µg/mL	> 100 µg/mL	> 100 µg/mL	> 100 µg/mL	> 100 µg/mL	> 100 µg/mL	> 100 µg/mL	50 µg/mL (≈ 132 µM)										
